The target of this assay is T1, ϕ6 P2 (RNA-directed RNA polymerase, RdRP) (Pseudomonas phage phi6, UniProt P11124).
T1 sequence (P11124 1-665): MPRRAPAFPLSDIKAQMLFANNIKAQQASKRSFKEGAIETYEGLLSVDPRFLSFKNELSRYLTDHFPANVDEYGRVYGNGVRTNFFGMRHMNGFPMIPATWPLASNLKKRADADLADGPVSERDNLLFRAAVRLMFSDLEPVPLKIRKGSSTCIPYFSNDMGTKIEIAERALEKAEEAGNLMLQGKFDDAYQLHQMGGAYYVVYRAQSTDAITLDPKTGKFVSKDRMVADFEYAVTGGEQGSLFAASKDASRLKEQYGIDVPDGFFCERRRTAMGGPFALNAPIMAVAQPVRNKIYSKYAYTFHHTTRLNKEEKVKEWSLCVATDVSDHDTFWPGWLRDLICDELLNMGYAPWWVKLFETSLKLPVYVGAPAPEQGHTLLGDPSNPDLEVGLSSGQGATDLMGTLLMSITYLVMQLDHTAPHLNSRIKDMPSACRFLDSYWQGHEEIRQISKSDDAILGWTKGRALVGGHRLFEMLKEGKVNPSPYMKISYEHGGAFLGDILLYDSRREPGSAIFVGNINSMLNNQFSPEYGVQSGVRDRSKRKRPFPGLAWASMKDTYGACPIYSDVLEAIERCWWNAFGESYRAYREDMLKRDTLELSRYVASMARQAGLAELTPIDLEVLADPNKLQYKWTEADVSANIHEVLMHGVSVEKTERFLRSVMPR
Description: tryptophan fluorescence quenching titration. The assay is classed as binding.

SMILES strings stand for the structures.

For orientation: Kd means the free concentration of one partner at which half of the binding sites on the other are occupied at equilibrium, for simple one-to-one binding.

Consider `Nc1nc2c(ncn2[C@@H]2O[C@H](COP(=O)(O)OP(=O)(O)NP(=O)(O)O)[C@@H](O)[C@H]2O)c(=O)[nH]1` [GMPPNP], for which the Kd is 317 ± 31 µM.

`Nc1nc2c(ncn2[C@@H]2O[C@H](COP(=O)(O)CP(=O)(O)OP(=O)(O)O)[C@@H](O)[C@H]2O)c(=O)[nH]1` [GMPCPP] displayed a Kd of 271 ± 31 µM.

For the origin of these results see publication PMC2926596 (Nucleic Acids Research, 2010).
